Data as given in US20220347175A1, “PYRIDAZINONE DERIVATIVE” (Sumitomo Dainippon Pharma Co., Ltd., priority 2018, published 2022).
Blank lines part the entries; values can stand above or below the molecule they belong to.

Experiments:
human Nav1.1 = molecular target: T1, human Nav1.1 (Homo sapiens, UniProt P35498); experiment: Amplification of Nav1.1-derived voltage-dependent sodium current (Nav1.1 current), cell line stably expressing human Nav1.1, automated patch clamp; type: cell-based
T1 construct: host or cells: HEK293
Method in brief: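 Amplification rate (%) is 100 × post-compound/pre-compound Nav1.1 peak current or AUC, minus 100. Ramp-evoked sodium currents were recorded by automated patch clamp in a human Nav1.1 HEK293 stable line, restricted to cells exceeding 500 pA, with compounds added in extracellular solution containing 1% DMSO.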

human Nav1.5 = molecular target: T2, human Nav1.5 (Homo sapiens, UniProt Q14524); experiment: Amplification of Nav1.5-derived voltage-dependent sodium current (Nav1.5 current), cell line stably expressing human Nav1.5, automated patch clamp; type: cell-based
T2 construct: expressed in transfected cells; host or cells: CHO-K1 (T-REx System, ThermoFisher Scientific)
T2 sequence (Q14524 1-2015 isoform Q14524-2): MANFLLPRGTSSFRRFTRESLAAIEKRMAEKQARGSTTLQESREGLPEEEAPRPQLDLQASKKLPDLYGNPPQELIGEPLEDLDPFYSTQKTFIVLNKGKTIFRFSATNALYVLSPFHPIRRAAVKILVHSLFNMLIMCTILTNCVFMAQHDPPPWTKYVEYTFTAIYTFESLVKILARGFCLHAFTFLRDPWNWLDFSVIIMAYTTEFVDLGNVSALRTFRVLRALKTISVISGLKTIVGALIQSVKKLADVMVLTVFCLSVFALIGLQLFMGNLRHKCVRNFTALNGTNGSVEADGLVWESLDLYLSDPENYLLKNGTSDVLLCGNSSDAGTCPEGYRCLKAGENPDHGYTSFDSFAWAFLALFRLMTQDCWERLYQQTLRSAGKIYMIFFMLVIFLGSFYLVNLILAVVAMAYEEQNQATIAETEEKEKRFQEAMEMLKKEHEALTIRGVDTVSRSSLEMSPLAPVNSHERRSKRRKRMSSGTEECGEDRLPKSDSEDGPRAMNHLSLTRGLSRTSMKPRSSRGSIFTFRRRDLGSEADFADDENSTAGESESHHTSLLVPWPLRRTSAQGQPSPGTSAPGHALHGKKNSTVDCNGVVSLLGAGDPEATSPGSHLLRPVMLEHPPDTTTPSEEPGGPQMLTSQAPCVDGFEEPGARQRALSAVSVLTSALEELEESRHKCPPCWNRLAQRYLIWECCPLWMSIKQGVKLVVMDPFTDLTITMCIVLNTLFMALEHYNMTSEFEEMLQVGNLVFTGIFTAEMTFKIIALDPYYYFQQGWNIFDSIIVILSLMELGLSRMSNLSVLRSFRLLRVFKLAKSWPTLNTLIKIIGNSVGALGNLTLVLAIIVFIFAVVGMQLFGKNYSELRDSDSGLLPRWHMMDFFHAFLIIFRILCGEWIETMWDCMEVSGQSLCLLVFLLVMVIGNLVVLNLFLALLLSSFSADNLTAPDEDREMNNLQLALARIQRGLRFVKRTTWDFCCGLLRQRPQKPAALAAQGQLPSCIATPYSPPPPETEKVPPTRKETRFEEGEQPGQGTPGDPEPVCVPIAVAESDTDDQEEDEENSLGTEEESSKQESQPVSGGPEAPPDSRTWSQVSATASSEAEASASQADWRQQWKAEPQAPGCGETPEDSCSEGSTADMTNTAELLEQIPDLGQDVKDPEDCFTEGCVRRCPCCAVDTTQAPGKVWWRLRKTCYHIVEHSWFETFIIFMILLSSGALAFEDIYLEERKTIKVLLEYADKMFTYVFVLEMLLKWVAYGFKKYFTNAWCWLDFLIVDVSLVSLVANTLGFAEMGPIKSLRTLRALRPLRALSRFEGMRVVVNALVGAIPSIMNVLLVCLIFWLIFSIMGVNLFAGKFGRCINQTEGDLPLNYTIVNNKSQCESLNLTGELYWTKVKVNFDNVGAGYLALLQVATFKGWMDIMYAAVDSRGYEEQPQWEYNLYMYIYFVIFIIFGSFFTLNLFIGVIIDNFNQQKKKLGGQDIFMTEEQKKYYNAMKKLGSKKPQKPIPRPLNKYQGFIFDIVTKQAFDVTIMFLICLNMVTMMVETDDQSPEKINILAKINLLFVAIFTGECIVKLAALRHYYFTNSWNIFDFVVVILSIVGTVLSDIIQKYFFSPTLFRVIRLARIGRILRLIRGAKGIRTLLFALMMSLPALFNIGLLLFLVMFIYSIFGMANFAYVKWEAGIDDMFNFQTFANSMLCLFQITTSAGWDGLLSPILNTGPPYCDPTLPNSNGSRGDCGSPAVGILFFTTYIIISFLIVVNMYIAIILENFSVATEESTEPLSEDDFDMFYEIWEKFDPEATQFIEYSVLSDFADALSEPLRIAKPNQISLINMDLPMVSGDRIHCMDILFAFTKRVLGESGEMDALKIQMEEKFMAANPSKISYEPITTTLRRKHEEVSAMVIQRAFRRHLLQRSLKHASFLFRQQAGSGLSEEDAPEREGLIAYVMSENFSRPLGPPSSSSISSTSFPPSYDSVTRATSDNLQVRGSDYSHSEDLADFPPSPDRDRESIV

[1] = 10 μmol/L compound, change of the area under the curve of Nav1.1 current (Test Result 1)
[2] = 10 μmol/L compound, change of the area under the curve of Nav1.5 current (Test Result 1)
[3] = compound 3 μmol/L, HEK293 stably expressing human Nav1.1
[4] = compound 3 μmol/L, CHO-K1 stably expressing human Nav1.5
[5] = compound 1 μmol/L, HEK293 stably expressing human Nav1.1, read-out: Nav1.1 current amplification rate (%)
[6] = compound 1 μmol/L, CHO-K1 stably expressing human Nav1.5, read-out: Nav1.5 current amplification rate (%)
[7] = 10 μmol/L compound, change of the area under the curve of Nav1.1 current (Test Result 1), read-out: Nav1.1 current amplification rate (%)
[8] = 10 μmol/L compound, change of the area under the curve of Nav1.5 current (Test Result 1), read-out: Nav1.5 current amplification rate (%)
[9] = compound 1 μmol/L, HEK293 stably expressing human Nav1.1
[10] = compound 1 μmol/L, CHO-K1 stably expressing human Nav1.5

SMILES: COC1CN(c2cccc3c2CCN3C(=O)Cn2nc(C3=CCC(C)(C)CC3)ccc2=O)C1 [Example 434]
Nav1.1 current amplification rate (%) (human Nav1.1; [1]): 232% | Nav1.5 current amplification rate (%) (human Nav1.5; [2]): 142%

SMILES: O=C(Cn1nc(C2=CCCCC2)ccc1=O)N1CCc2c(-c3cnccn3)cccc21 [Example 521]
activation at 1 µM (human Nav1.1; [5]): 358% | activation at 1 µM (human Nav1.5; [6]): 9%

SMILES: Cc1cc(NC(=O)Cn2nc(N3CCC4(CCCC4)C3)cc(C)c2=O)cc(C)n1 [Example 198]
activation at 10 µM (human Nav1.1; [7]): 36% | activation at 10 µM (human Nav1.5; [8]): -9%

SMILES: COc1cc(C2=CCC(C)C2)nn(CC(=O)N2CCN(c3cncc(F)c3)CC2)c1=O (stereo not shown) [Example 485]
Nav1.1 current amplification rate (%) (human Nav1.1; [1]): 264% | Nav1.5 current amplification rate (%) (human Nav1.5; [2]): 3%

SMILES: COCOc1cccc2c1CCN2C(=O)Cn1nc(C2=CCC(C)(C)CC2)ccc1=O [Example 435]
Nav1.1 current amplification rate (%) (human Nav1.1; [1]): 262% | Nav1.5 current amplification rate (%) (human Nav1.5; [2]): 14%

SMILES: O=C(Cn1nc(C2=CCC(F)(F)CC2)ccc1=O)N1CCN(c2cncc(F)c2)CC1 [Example 489]
Nav1.1 current amplification rate (%) (human Nav1.1; [1]): 29% | Nav1.5 current amplification rate (%) (human Nav1.5; [2]): 0%

SMILES: CC1(C)CC=C(c2ccc(=O)n(CC(=O)N3CCc4c(OC5COC5)cccc43)n2)CC1 [Example 436]
Nav1.1 current amplification rate (%) (human Nav1.1; [1]): 226% | Nav1.5 current amplification rate (%) (human Nav1.5; [2]): 31%

SMILES: COc1cc(-c2cc(Cl)cs2)nn(CC(=O)Nc2ccn3ccnc3c2)c1=O [Example 466]
Nav1.1 current amplification rate (%) (human Nav1.1; [1]): 233% | Nav1.5 current amplification rate (%) (human Nav1.5; [2]): 38%

SMILES: O=C(Cn1nc(N2CCC3(CCC3)CC2)ccc1=O)Nc1ccc2c(c1)COC2 [Example 190]
activation at 10 µM (human Nav1.1; [7]): 100% | activation at 10 µM (human Nav1.5; [8]): 12%

SMILES: CC1(C)CC=C(c2ccc(=O)n(CC(=O)N3CCc4c(N5CCOCC5)cccc43)n2)CC1 [Example 432]
Nav1.1 current amplification rate (%) (human Nav1.1; [9]): 280% | Nav1.5 current amplification rate (%) (human Nav1.5; [10]): 16%

SMILES: CC1CCN(c2ccc(=O)n(CC(=O)Nc3ccc(C(=O)N4CCCC4)cc3)n2)CC1 [Example 79]
Nav1.1 current amplification rate (%) (human Nav1.1; [1]): 165% | Nav1.5 current amplification rate (%) (human Nav1.5; [2]): 4%

SMILES: O=C(Cn1nc(N2CC3C(C2)C3(F)F)ccc1=O)Nc1ccc2ocnc2c1 (stereo not shown) [Example 162]
activation at 10 µM (human Nav1.1; [7]): 6% | activation at 10 µM (human Nav1.5; [8]): 0%

SMILES: CC1CCN(c2ccc(=O)n(CC(=O)Nc3ccc4oc(=O)n(C)c4c3)n2)CC1 [Example 81]
Nav1.1 current amplification rate (%) (human Nav1.1; [1]): 69% | Nav1.5 current amplification rate (%) (human Nav1.5; [2]): 21%

SMILES: CN1CCN(c2cccc3c2CCN3C(=O)Cn2nc(C3=CCC(C)(C)CC3)ccc2=O)CC1 [Example 433]
Nav1.1 current amplification rate (%) (human Nav1.1; [1]): 192% | Nav1.5 current amplification rate (%) (human Nav1.5; [2]): 10%

SMILES: CC1CCN(c2ccc(=O)n(CC(=O)Nc3ccc4ccoc4c3)n2)CC1 [Example 163]
activation at 10 µM (human Nav1.1; [7]): 118% | activation at 10 µM (human Nav1.5; [8]): 1%

SMILES: CC1CCN(c2ccc(=O)n(CC(=O)Nc3ccnc(N4CCOCC4)c3)n2)CC1 [Example 66]
Nav1.1 current amplification rate (%) (human Nav1.1; [1]): 49% | Nav1.5 current amplification rate (%) (human Nav1.5; [2]): 31%

SMILES: O=C(Cn1nc(C2=CCCCC2)ccc1=O)N1CCc2c(-c3cncnc3)cccc21 [Example 522]
activation at 1 µM (human Nav1.1; [5]): 367% | activation at 1 µM (human Nav1.5; [6]): 25%

SMILES: Cc1ncc(-c2cccc3c2CCN3C(=O)Cn2nc(C3=CCCCC3)ccc2=O)cn1 [Example 518]
activation at 1 µM (human Nav1.1; [5]): 344% | activation at 1 µM (human Nav1.5; [6]): 9%

SMILES: O=C(Cn1nc(N2CCC3(CCCC3)C2)cc(N2CCCC2)c1=O)Nc1ccc2ocnc2c1 [Example 206]
activation at 10 µM (human Nav1.1; [7]): 154% | activation at 10 µM (human Nav1.5; [8]): 33%

SMILES: CC1(C)CC=C(c2ccc(=O)n(CC(=O)N3CCc4c(C5CN(C(=O)CO)C5)cccc43)n2)CC1 [Example 437]
Nav1.1 current amplification rate (%) (human Nav1.1; [3]): 582% | Nav1.5 current amplification rate (%) (human Nav1.5; [4]): 194%

Second part, led by results:

Nav1.1 current amplification rate (%) (human Nav1.1; [1]): 53%
SMILES: CC1CC=C(c2ccc(=O)n(CC(=O)N3CCc4c3ccnc4Cl)n2)CC1 (racemic) [Example 247]
Nav1.5 current amplification rate (%) (human Nav1.5; [2]): 43%

Nav1.1 current amplification rate (%) (human Nav1.1; [3]): 67%
SMILES: CC1CC=C(c2ccc(=O)n(CC(=O)N3CCc4c(C5CN(CCO)C5)cccc43)n2)CC1 (racemic) [Example 303]
Nav1.5 current amplification rate (%) (human Nav1.5; [4]): 11%

Nav1.1 current amplification rate (%) (human Nav1.1; [1]): 199%
SMILES: CC1CC=C(c2ccc(=O)n(CC(=O)Nc3ccn4cc(C(F)(F)F)nc4c3)n2)CC1 (stereo not shown) [Example 421]
Nav1.5 current amplification rate (%) (human Nav1.5; [2]): 34%

Nav1.1 current amplification rate (%) (human Nav1.1; [3]): 110%
SMILES: CC1CC=C(c2ccc(=O)n(CC(=O)N3CCc4c(C5=CCNC5)cccc43)n2)CC1 (racemic) [Example 265]
Nav1.5 current amplification rate (%) (human Nav1.5; [4]): 19%

activation at 1 µM (human Nav1.1; [5]): 80%
SMILES: C[C@@H]1CC=C(c2ccc(=O)n(CC(=O)Nc3ccc4ncnn4c3)n2)CC1 [Example 539, 2-{3-[(4S)-4-methylcyclohex-1-en-1-yl]-6-oxopyridazin-1(6H)-yl}-N-([1,2,4]triazolo[1,5-a]pyridin-6-yl)acetamide]
activation at 1 µM (human Nav1.5; [6]): 11%

activation at 10 µM (human Nav1.1; [7]): 121%
SMILES: CC1CCN(c2ccc(=O)n(CC(=O)Nc3cc(F)c4ocnc4c3)n2)CC1 [Example 216]
activation at 10 µM (human Nav1.5; [8]): 3%

Nav1.1 current amplification rate (%) (human Nav1.1; [9]): 73%
SMILES: CC1CC=C(c2ccc(=O)n(CC(=O)N3CCc4c(CN5CC=CC5)cccc43)n2)CC1 (racemic) [Example 287]
Nav1.5 current amplification rate (%) (human Nav1.5; [10]): 123%

Nav1.1 current amplification rate (%) (human Nav1.1; [1]): 105%
SMILES: Cc1cc(NC(=O)Cn2nc(N3CCC(C)CC3)ccc2=O)cc2ncoc12 [Example 96]
Nav1.5 current amplification rate (%) (human Nav1.5; [2]): 7%

Nav1.1 current amplification rate (%) (human Nav1.1; [1]): 333%
SMILES: O=C(Cn1nc(C2=CCC(C(F)(F)F)CC2)ccc1=O)Nc1ccc2ocnc2c1 (stereo not shown) [Example 446]
Nav1.5 current amplification rate (%) (human Nav1.5; [2]): 10%

activation at 10 µM (human Nav1.1; [7]): 56%
SMILES: N#Cc1cc(NC(=O)Cn2nc(C3=CCC(F)(F)CC3)ccc2=O)ccn1 [Example 115]
activation at 10 µM (human Nav1.5; [8]): 12%

Nav1.1 current amplification rate (%) (human Nav1.1; [1]): 11%
SMILES: Cc1noc2ccc(NC(=O)Cn3nc(C4=CCC(C)CC4)ccc3=O)cc12 (stereo not shown) [Example 423]
Nav1.5 current amplification rate (%) (human Nav1.5; [2]): 4%

Nav1.1 current amplification rate (%) (human Nav1.1; [3]): 77%
SMILES: CC1CC=C(c2ccc(=O)n(CC(=O)N3CCc4cc(C5CN(C6COC6)C5)ccc43)n2)CC1 (racemic) [Example 318]
Nav1.5 current amplification rate (%) (human Nav1.5; [4]): 128%

activation at 10 µM (human Nav1.1; [7]): 112%
SMILES: CC1CCN(c2ccc(=O)n(CC(=O)Nc3ccn4c(Br)cnc4c3)n2)CC1 [Example 173]
activation at 10 µM (human Nav1.5; [8]): 47%

Nav1.1 current amplification rate (%) (human Nav1.1; [3]): 64%
SMILES: CC1CC=C(c2ccc(=O)n(CC(=O)Nc3ccc4oc(CN5CCOCC5)nc4c3)n2)CC1 (racemic) [Example 331]
Nav1.5 current amplification rate (%) (human Nav1.5; [4]): 9%

activation at 3 µM (human Nav1.1; compound 3 μmol/L, HEK293 stably expressing human Nav1.1, read-out: Nav1.1 current amplification rate (%)): 222%
SMILES: COc1cc(=O)n(CC(=O)Nc2ccc3oc(C)nc3c2)nc1C1=CCC(C)(C)CC1 [Example 492]
activation at 3 µM (human Nav1.5; compound 3 μmol/L, CHO-K1 stably expressing human Nav1.5, read-out: Nav1.5 current amplification rate (%)): 16%

Nav1.1 current amplification rate (%) (human Nav1.1; [3]): 132%
SMILES: Cc1nc2cc(NC(=O)Cn3nc(C4=CCC(C)CC4)ccc3=O)cnc2s1 (racemic) [Example 326]
Nav1.5 current amplification rate (%) (human Nav1.5; [4]): 34%

Nav1.1 current amplification rate (%) (human Nav1.1; [1]): 36%
SMILES: CC1CC=C(c2ccc(=O)n(CC(=O)N3CCC(c4ccccc4)CC3)n2)CC1 (racemic) [Example 256]
Nav1.5 current amplification rate (%) (human Nav1.5; [2]): −30%

Nav1.1 current amplification rate (%) (human Nav1.1; [1]): 343%
SMILES: CC1CC=C(c2ccc(=O)n(CC(=O)N3CCN(c4cccnc4)CC3)n2)CC1 (racemic) [Example 395]
Nav1.5 current amplification rate (%) (human Nav1.5; [2]): 15%

Nav1.1 current amplification rate (%) (human Nav1.1; [1]): 111%
SMILES: CC1CCN(c2ccc(=O)n(CC(=O)Nc3cccc(C#N)c3)n2)CC1 [Example 55]
Nav1.5 current amplification rate (%) (human Nav1.5; [2]): 27%

Nav1.1 current amplification rate (%) (human Nav1.1; [1]): 68%
SMILES: Cc1noc2ccc(NC(=O)Cn3nc(N4CCC(C)CC4)ccc3=O)cc12 [Example 70]
Nav1.5 current amplification rate (%) (human Nav1.5; [2]): 0%

activation at 10 µM (human Nav1.1; [7]): 44%
SMILES: Cc1cc2cc(NC(=O)Cn3nc(N4CCC(C)CC4)ccc3=O)ccc2o1 [Example 175]
activation at 10 µM (human Nav1.5; [8]): 1%
